Measurements as given in PubChem BioAssay (NCI).
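Following 48 hours of exposure in 96-well plates, responses at five concentrations were used to interpolate endpoints linearly. TGI: concentration producing complete growth inhibition.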

The compounds below were run on 786-0 renal (assay: NCI-60 cell line screen, 48 h).

Row | Structure (SMILES) | TGI [µM]
1 | CC(C)(C)OC(=O)NCCCCC1NC(=O)[C@@H]2Cc3c([nH]c4ccccc34)C(C3CCCCC3)N2C1=O (stereo partly drawn) | > 100
2 | CC(C)(C)N1CSC(=S)N(Cc2ccco2)C1 | 11.5
3 | CC1(C)N=[N+]([O-])C1(C)C | > 100
4 | [N-]=[N+]=NC[C@H]1OCO[C@H](CN=[N+]=[N-])[C@@H](OCCOCCCl)[C@@H]1OCCOCCCl | > 100
5 | c1ccc(-c2nc(-c3ccccc3SSc3ccccc3-c3nc(-c4ccccc4)nn3-c3ccccc3)n(-c3ccccc3)n2)cc1 | > 100
6 | Cc1nc2n(c1/C=C1/C(=O)Nc3cccc(Cl)c31)CCS2 | > 100
7 | C[C@@H](NC(=O)[C@@H]1C[C@]1(C)COC(=O)c1cc([N+](=O)[O-])cc([N+](=O)[O-])c1)c1cccc2ccccc12 | > 100

The compounds below were run on A498 renal (assay: NCI-60 cell line screen, 48 h).

Row | Structure (SMILES) | TGI [µM]
8 | CC(C)(C)OC(=O)NCCCCC1NC(=O)[C@@H]2Cc3c([nH]c4ccccc34)C(C3CCCCC3)N2C1=O (stereo partly drawn) | > 100
9 | CC(C)(C)N1CSC(=S)N(Cc2ccco2)C1 | 26.7
10 | CC1(C)N=[N+]([O-])C1(C)C | > 100
11 | c1ccc(-c2nc(-c3ccccc3SSc3ccccc3-c3nc(-c4ccccc4)nn3-c3ccccc3)n(-c3ccccc3)n2)cc1 | > 100
12 | Cc1nc2n(c1/C=C1/C(=O)Nc3cccc(Cl)c31)CCS2 | > 100
13 | C[C@@H](NC(=O)[C@@H]1C[C@]1(C)COC(=O)c1cc([N+](=O)[O-])cc([N+](=O)[O-])c1)c1cccc2ccccc12 | > 100

The compounds below were run on A549 NSCLC (assay: NCI-60 cell line screen, 48 h).

Row | Structure (SMILES) | TGI [µM]
14 | CC(C)(C)OC(=O)NCCCCC1NC(=O)[C@@H]2Cc3c([nH]c4ccccc34)C(C3CCCCC3)N2C1=O (stereo partly drawn) | > 100
15 | CC(C)(C)N1CSC(=S)N(Cc2ccco2)C1 | 24.4
16 | CC1(C)N=[N+]([O-])C1(C)C | > 100
17 | [N-]=[N+]=NC[C@H]1OCO[C@H](CN=[N+]=[N-])[C@@H](OCCOCCCl)[C@@H]1OCCOCCCl | > 100
18 | c1ccc(-c2nc(-c3ccccc3SSc3ccccc3-c3nc(-c4ccccc4)nn3-c3ccccc3)n(-c3ccccc3)n2)cc1 | > 100
19 | Cc1nc2n(c1/C=C1/C(=O)Nc3cccc(Cl)c31)CCS2 | > 100
20 | C[C@@H](NC(=O)[C@@H]1C[C@]1(C)COC(=O)c1cc([N+](=O)[O-])cc([N+](=O)[O-])c1)c1cccc2ccccc12 | > 100

Each compound was assayed on ACHN renal (assay: NCI-60 cell line screen, 48 h).

Row | Structure (SMILES) | TGI [µM]
21 | CC(C)(C)OC(=O)NCCCCC1NC(=O)[C@@H]2Cc3c([nH]c4ccccc34)C(C3CCCCC3)N2C1=O (stereo partly drawn) | > 100
22 | CC(C)(C)N1CSC(=S)N(Cc2ccco2)C1 | 13.7
23 | c1ccc(-c2nc(-c3ccccc3SSc3ccccc3-c3nc(-c4ccccc4)nn3-c3ccccc3)n(-c3ccccc3)n2)cc1 | > 100
24 | Cc1nc2n(c1/C=C1/C(=O)Nc3cccc(Cl)c31)CCS2 | > 100
25 | C[C@@H](NC(=O)[C@@H]1C[C@]1(C)COC(=O)c1cc([N+](=O)[O-])cc([N+](=O)[O-])c1)c1cccc2ccccc12 | > 100

Each compound was assayed on BT-549 breast (assay: NCI-60 cell line screen, 48 h).

Row | Structure (SMILES) | TGI [µM]
26 | CC(C)(C)OC(=O)NCCCCC1NC(=O)[C@@H]2Cc3c([nH]c4ccccc34)C(C3CCCCC3)N2C1=O (stereo partly drawn) | > 100
27 | CC(C)(C)N1CSC(=S)N(Cc2ccco2)C1 | 9.62
28 | CC1(C)N=[N+]([O-])C1(C)C | > 100
29 | [N-]=[N+]=NC[C@H]1OCO[C@H](CN=[N+]=[N-])[C@@H](OCCOCCCl)[C@@H]1OCCOCCCl | > 100
30 | c1ccc(-c2nc(-c3ccccc3SSc3ccccc3-c3nc(-c4ccccc4)nn3-c3ccccc3)n(-c3ccccc3)n2)cc1 | > 100
31 | Cc1nc2n(c1/C=C1/C(=O)Nc3cccc(Cl)c31)CCS2 | 98.7
32 | C[C@@H](NC(=O)[C@@H]1C[C@]1(C)COC(=O)c1cc([N+](=O)[O-])cc([N+](=O)[O-])c1)c1cccc2ccccc12 | > 100

What follows are compounds tested on CAKI-1 renal (assay: NCI-60 cell line screen, 48 h).

Row | Structure (SMILES) | TGI [µM]
33 | CC(C)(C)OC(=O)NCCCCC1NC(=O)[C@@H]2Cc3c([nH]c4ccccc34)C(C3CCCCC3)N2C1=O (stereo partly drawn) | > 100
34 | CC(C)(C)N1CSC(=S)N(Cc2ccco2)C1 | 12.4
35 | CC1(C)N=[N+]([O-])C1(C)C | > 100
36 | [N-]=[N+]=NC[C@H]1OCO[C@H](CN=[N+]=[N-])[C@@H](OCCOCCCl)[C@@H]1OCCOCCCl | > 100
37 | c1ccc(-c2nc(-c3ccccc3SSc3ccccc3-c3nc(-c4ccccc4)nn3-c3ccccc3)n(-c3ccccc3)n2)cc1 | > 100
38 | Cc1nc2n(c1/C=C1/C(=O)Nc3cccc(Cl)c31)CCS2 | > 100
39 | C[C@@H](NC(=O)[C@@H]1C[C@]1(C)COC(=O)c1cc([N+](=O)[O-])cc([N+](=O)[O-])c1)c1cccc2ccccc12 | > 100

The compounds below were run on CCRF-CEM leukemia (assay: NCI-60 cell line screen, 48 h).

Row | Structure (SMILES) | TGI [µM]
40 | CC(C)(C)N1CSC(=S)N(Cc2ccco2)C1 | 4.03
41 | CC1(C)N=[N+]([O-])C1(C)C | > 100
42 | [N-]=[N+]=NC[C@H]1OCO[C@H](CN=[N+]=[N-])[C@@H](OCCOCCCl)[C@@H]1OCCOCCCl | > 100
43 | c1ccc(-c2nc(-c3ccccc3SSc3ccccc3-c3nc(-c4ccccc4)nn3-c3ccccc3)n(-c3ccccc3)n2)cc1 | > 100
44 | Cc1nc2n(c1/C=C1/C(=O)Nc3cccc(Cl)c31)CCS2 | > 100
45 | C[C@@H](NC(=O)[C@@H]1C[C@]1(C)COC(=O)c1cc([N+](=O)[O-])cc([N+](=O)[O-])c1)c1cccc2ccccc12 | > 100

Each compound was assayed on COLO 205 colon (assay: NCI-60 cell line screen, 48 h).

Row | Structure (SMILES) | TGI [µM]
46 | CC(C)(C)OC(=O)NCCCCC1NC(=O)[C@@H]2Cc3c([nH]c4ccccc34)C(C3CCCCC3)N2C1=O (stereo partly drawn) | 55.1
47 | CC(C)(C)N1CSC(=S)N(Cc2ccco2)C1 | 14.7
48 | CC1(C)N=[N+]([O-])C1(C)C | > 100
